Key:
[1] = system: GAM-IgG-HRP (goat-anti-mouse-IgG-horseradish peroxidase enzyme labeled antibody); assay: Bound enzyme labeled antibody on strips exposed to aqueous surfactant, rinsed or not rinsed, ABTS readout; settings: 0.1% surfactant in H2O/isopropanol (95/5), not dried, rinsed 5x with dI H2O
Description: Medium binding (catalog #2587) and high binding (catalog #2581) polystyrene 96-well plates (8-well strips) manufactured by Corning Costar were used as follows. […] Strips were incubated for 30 minutes at room temperature on a rocker table. Strips were then emptied and tapped out. […] Immediately following this procedure, each well was aliquoted 0.10 ml of GAM-IgG-HRP (goat-anti-mouse-IgG-horseradish peroxidase enzyme labeled antibody; Kirkegaard and Perry, Gaithersburg, Md., Catalog #074-1806) at 1.0 μg/ml in PBS buffer pH=7.4). Strips were incubated for one hour at room temperature on a rocker table. Strips were then rinsed 5× with PBS buffer containing 0.02% Tween-20 followed by post rinsing with H2O. […] Absorbance at 405 nm was measured on a Cambridge Technologies #7520 Plate Reader.

[2] = system: IgG (Horse Standard, Pierce); assay: Coating durability using protein solution washes on four polymers, colloidal Au; settings: after six IgG solution exposures
Description: The procedures used were as follows. Injection molded assay plates (96-well format) were made from polystyrene, (STYRON Dow 685D), polypropylene (Exxon 9374), polymethyl methacrylate (ATO HAAS), and KYNAR FLEX 2800 PVDF copolymer (ATO HAAS). Each well was aliquoted 0.10 ml of IgG (Horse Standard, Pierce) at 10 μg/ml in 0.01 M PBS buffer (pH=7.4) and placed on a rocker table for 30 minutes at 23° C. The protein solution was then emptied from the wells and a fresh protein solution was aliquoted to each well and the entire procedure repeated a total of six times. The plates were then rinsed three times with dI H2O (0.3 ml/well). Colloidal Au stain was added to each well (0.3 ml/well) and the plates were placed on a rocker table overnight. Plates were then rinsed 3 times with dI H2O, allowed to dry, and absorbance at 550 nm was measured using the Cambridge Technologies Plate Reader.

BSA protein = assay: Coating stability in the presence of excess protein, colloidal gold
Description: The following procedures were employed in this example. 24-well polystyrene plates were coated as described in Materials and Methods using 25 μl aliquots of 0.10% (w/v) sorbitol mono-oleate in isopropanol. Coverage of the sorbitol mono-oleate was calculated at 10 μg/cm^2. Each well of the plates was exposed to 1.0 ml of BSA protein (Pierce) at 2 mg/ml in PBS buffer (pH=7.4). The plates were incubated on a rocker table for 30 minutes at room temperature, the wells were emptied, and the protein exposure was repeated a total of six times. The plates were then rinsed 3 times with dI H2O and stained with the colloidal gold stain overnight. Plates were then rinsed with dI H2O, dried, and the absorbance of each well was measured at 550 nm on the Cambridge Technologies plate reader.

IgG = assay: Protein binding to coated 0.45 micron PVDF membranes, Au stain; settings: coated two times by immersion, 0.1% in isopropanol; IgG 10 μg/ml
Description: The experiments were performed using 0.45 micron PVDF membranes. The membranes were coated two times by immersion using 0.1% (weight/volume) of the following non-ionic surfactants in isopropanol: sorbitol mono-oleate, Pluronic® L-121, Pluronic® L-122, and Pluronic® L-123. The membrane was dried at room temperature after each of the two immersion coatings. The coated membranes were incubated with IgG 10 μg/ml in 0.1M PBS (pH 7.4) for 30 minutes at room temperature on an orbital shaker. The membranes were then rinsed three times with water in a clean plate, each rinse being performed for 5 minutes on the shaker. Thereafter, the membranes were stained with Au overnight, again on the shaker. An uncoated PVDF membrane was used as a control.

IgG protein = assay: In-mold coating of 24-well polystyrene plates, protein binding by colloidal gold staining
Description: The in-mold coating aspects of the invention were tested by molding 24-well polystyrene plates. […] The 0.01% concentration was estimated to produce less than one monolayer of surfactant on the finished product, while the 0.1% concentration produced about 7 monolayers. The surfactant was applied to the mold using a Crown sprayer (Crown Industrial Products, Hebron, Ill.; Catalog #8011), which produces a sufficiently fine spray of droplets to uniformly coat the mold. The mold was sprayed before each part was made.

| Compound | Absorbance (405 nm) High Binding Polystyrene Rinsed [1] | Absorbance (405 nm) Medium Binding Polystyrene Rinsed [1] | Absorbance (550 nm) Polypropylene [2] | Absorbance (550 nm) Polystyrene [2] | Absorbance at 550 nm (BSA protein; 1 exposure to BSA 2 mg/ml, 30 min total, coated polystyrene) | Absorbance at 550 nm (BSA protein; 2 exposures, 60 min total) | Absorbance at 550 nm (BSA protein; 3 exposures, 90 min total) | Absorbance at 550 nm (BSA protein; 4 exposures, 120 min total) | Absorbance at 550 nm (BSA protein; 5 exposures, 150 min total) | Absorbance at 550 nm (BSA protein; 6 exposures, 180 min total) | protein binding to coated PVDF membrane (IgG) | protein binding of in-mold coated part (IgG protein; concentrations above 0.1%, ranging up to 2%) | protein binding of in-mold coated part (IgG protein; mold sprayed with 0.01% (w/v) solution in isopropanol) | protein binding of in-mold coated part (IgG protein; mold sprayed with 0.1% (w/v) solution in isopropanol) |
| --- | --- | --- | --- | --- | --- | --- | --- | --- | --- | --- | --- | --- | --- | --- |
| CCCCCCCC/C=C\CCCCCCCCOCCOCCO [PEO(2) OLEYL ETHER] | 2.10 | 1.90 | – | – | – | – | – | – | – | – | – | – | – | – |
| CCCCCCCCCCCCOCCOCCOCCOCCO [PEO(4) LAURYL ETHER] | 2.10 | 1.90 | – | – | – | – | – | – | – | – | – | – | – | – |
| SORBITOL MONO-OLEATE | – | – | 0.00 | 0.00 | 0.0 | 0.0 | 0.0 | 0.0 | 0.0 | 0.0 | substantially identical to that of the uncoated PVDF | found to work successfully | pooling and missed areas were seen which bound protein | essentially no protein binding |
